Results reported in US6350740B1, “Transplatinum complexes as cytotoxic and anticancer agents” (Virginia Commonwealth University, priority 2000, dated 2002).
Read-outs that look alike come from different tables or passages of the source.

How the values were obtained:
Daudi = assay: Cytotoxicity by cell proliferation, Daudi cells; format: cell-based; conditions: read-out: IC50 for indicated cell line Daudi
Protocol: (§1) The cytotoxicity of the novel trans-platinum compounds was assayed through the standard protocols of the NCI Developmental Therapeutics (HIV) and NIAID (Herpes Viruses) Screening Programs.
(§2) http://www.niaid.nih.gov/dmid/apdsame.html. IC50 is cytotoxic dose in cell carriers.
(§3) The cytotoxicity of several nucleobase compounds of the general formula SP-4-2-[PtX(L)(L′)(B)]^+ was assessed and the results are given in Table I. The cell lines employed were human foreskin fibroblast (HFF), Daudi, and CEM-SS, a T-cell line typically used to csrry snd maintain human imnmunodefficiency virus (HIV). The lC50 values for HFF and Dsudi cell lines were determined by cell proliferation as referenced above. The IC50 values for the CEM-SS cell line was determined by XTT colorimetric assays as referenced above.

[1] = test system: human foreskin fibroblast (HFF); assay: Cytotoxicity by cell proliferation, HFF cells; format: cell-based; conditions: read-out: IC50 for indicated cell line HFF
Protocol: as §1, §2, §3

CEM-SS, a T-cell line = assay: Cytotoxicity by XTT colorimetric assay, CEM-SS cells; format: cell-based; conditions: read-out: IC50 for indicated cell line CEM-SS
Protocol: as §1, §2, §3

[2] = Water-solubility compared with the parent compound; format: physicochemical; conditions: statement in words, no values
A 2780 = A 2780 cells
L1210 Leukemia [3] = conditions: murine L1210 leukemia; J. Med. Chem. 32:2240; cited from earlier work
L1210 Leukemia [4] = conditions: for in vivo antitumor activity: murine L1210 leukemia
Source text: b: %T/C is % average survival in days of treated animals/average survival in days of control animals. All tests performed as reported in references in a above. 50×3 refers to dose (mg/kg) and schedule (drug injection at 1,5,9 days after tumor inoculation).

In the case of `CCn1c[n+]([Pt-2]([NH2])([NH3+])[Cl])c2c(=O)[nH]c(N)nc21` (stereo not drawn) [Compound 1, trans-[PtCl(9-ethylguanine)(NH3)2]^+], the IC50 (Daudi) is reported as 7.9 µM and the IC50 [1] is reported as 18.9 µM.
`CCn1c[n+]([Pt-2]([NH2])([Cl])[n+]2ccsc2)c2c(=O)[nH]c(N)nc21` (centres unmarked) [Compound 2, SP-4-2-[PtCl(9-ethylguanine)(NH3)(thiazole)]^+] gave an IC50 (Daudi) of 18.1 µM, an IC50 [1] of 11.2 µM and an IC50 (CEM-SS, a T-cell line; first CEM-SS column) of 47.3 µM. The IC50 (CEM-SS, a T-cell line; second CEM-SS column) was 24.6 µM.
With `CCn1c[n+]([Pt-2]([NH2])([Cl])[n+]2cccc3ccccc32)c2c(=O)[nH]c(N)nc21` (centres unmarked) [Compound 4] the IC50 (Daudi) was 0.93 µM, the IC50 [1] was 25.9 µM and the IC50 (CEM-SS, a T-cell line; first CEM-SS column) was 47.4 µM. For the same compound, the IC50 (CEM-SS, a T-cell line; second CEM-SS column) was 31.7 µM.
`CCn1c[n+]([Pt-2]([NH2])([Cl])[n+]2ccc3ccccc3c2)c2c(=O)[nH]c(N)nc21` (centres unmarked) [Compound 5, SP-4-2-[PtCl(9-ethylguanine)(NH3)(isoquinoline)]^+] showed an IC50 (Daudi) of 4.8 µM and an IC50 [1] of 2.8 µM.
In the case of `CCn1c[n+]([Pt-2]([Cl])([n+]2ccc(C)cc2)[n+]2ccc(C)cc2)c2c(=O)[nH]c(N)nc21` [Compound 6, trans-[PtCl(9-ethylguanine) (4-picoline)2]^+], the “water-solubility and bioavailability versus parent trans-[PtCl2(4-pic)2]” value [2] is reported as “significant water-solubility and bioavailability over the parent compound”, the IC50 (Daudi) is reported as 0.92 µM and the IC50 [1] is reported as 21.7 µM. The IC50 (CEM-SS, a T-cell line; first CEM-SS column) was 1.9 µM and the IC50 (CEM-SS, a T-cell line; second CEM-SS column) was 2 µM.
With `Cn1ccc(N)[n+]([Pt-2]([NH2])([Cl])[n+]2cccc3ccccc32)c1=O` (centres unmarked) [Compound 9, SP-4-2-[PtCl(1-methylcytosine)(NH3)(quinoline)]^+] the IC50 (Daudi) was 14.1 µM, the IC50 [1] was 38.7 µM and the IC50 (CEM-SS, a T-cell line; first CEM-SS column) was 50.4 µM. The IC50 (CEM-SS, a T-cell line; second CEM-SS column) was 33.2 µM.
With `Cn1ccc(N)[n+]([Pt-2]([NH2])([Cl])[n+]2ccc3ccccc3c2)c1=O` (centres unmarked) [Compound 10, SP-4-2-[PtCl(1-methylcytosine)(NH3)(isoquinoline)]^+] the IC50 (Daudi) was 21.6 µM and the IC50 [1] was greater than 56.4 µM.
In the case of `[Cl][Pt][Cl].c1ccncc1.c1ccncc1` [trans-[PtCl2(pyridine)2], reference compound], the “A 2780 IC50” value (A 2780) is listed as 0.2 µg/mL, the “in vivo antitumor activity, previously reported” value (L1210 Leukemia [3]) is listed as “totally inactive” and the “L1210 Leukemia % T/C” value (L1210 Leukemia [4]; 50 × 2: 50 mg/kg, injected twice only) is listed as 106 (50 × 2) %. For the same compound, the “in vivo antitumor activity” value (L1210 Leukemia [4]) was “no activity”.
Compound “SP-4-2-[PtCl(1-methylcytosine)(NH3)(thiazole)] [Compound 8]” has an IC50 [1] greater than 52 µM.
“SP-4-2-[PtCl(9-ethylguanine) (NH3)(benzothiazole)]^+ [Compound 3]” gave an IC50 (Daudi) of 9.8 µM and an IC50 [1] of 11.2 µM.
“trans-[PtCl(1-methylcytosine)(NH3)2]^+ [Compound 7]” gave an IC50 (Daudi) of 15 µM and an IC50 [1] greater than 45.2 µM.
With trans-[PtCl(Me2SO)(pyridine)2]^+ the “A 2780 IC50” value (A 2780) was 0.3 µg/mL, the “L1210 Leukemia % T/C” value (L1210 Leukemia [4]; 50 × 3: 50 mg/kg, injection at 1,5,9 days after tumor inoculation, T/C >150% indicative of activity) was 155 (50 × 3) % and the “in vivo antitumor activity” value (L1210 Leukemia [4]) was “some antitumor activity”.
